Data from PubChem BioAssay AID2060893 (Molecular Pharmacology Branch, DTP, NCI, 2025).

Test system: K86415-001-R-J1-PDC complex spheroids, viability
Test: Anticancer human tumor K86415-001-R-J1-PDC patient-derived lung adenocarcinoma cell line growth inhibition [RAS]
Conditions: for IC50: curve of first compound; for viability, T/C: stronger effect = lower value
Description: RAS pathway inhibitors in Combinations in Complex Spheroids
A high-throughput screen of multi-cell type tumor spheroids was designed to identify active combinations of RAS pathway inhibitors and targeted small molecules. Complex spheroids include a stromal component modeled by human endothelial cells (HUVEC) and fibroblasts modeled by human mesenchymal stem cells (MSCs). The concentration ranges selected for each drug and investigational agent were based upon clinically achievable concentrations if the clinical Cmax of the agent was known.
Compounds. The drugs and investigational agents: abemaciclib (NSC768073), cobimetinib (NSC768068), divarasib (GDC6063, NSC841802), docetaxel (NSC628503), GDC-1971 (RLY-1971, NSC841576), gemcitabine (NSC613327), inavolisib (NSC800729), ipatasertib (NSC767898), KB-0742 (NSC834161), MRTX-1133 (NSC836407), osimertinib (NSC779217), RMC-4630 (NSC839698), RMC-6236 (NSC851965), RMC-6291 (NSC852671), Ro-3306 (NSC812927), sapanisertib (NSC764658), SN-38 (NSC673596), staurosporine (NSC755774), SY5609 (NSC837396), and tovorafenib (DAY101, NSC766906), were obtained from the National Cancer Institute (NCI) Developmental Therapeutics Program Chemical Repository. The FDA-approved anticancer drug set is available from the NCI Developmental Therapeutics Program. […] The stock solutions were prepared in dimethyl sulfoxide (DMSO, Sigma-Aldrich, St. Louis, MO, cat. D2650) at 800-fold the tested concentration and stored at -70 degrees C prior to their use. All drugs and investigational agents were tested over a range starting from a high concentration at or near the clinical Cmax and decreasing in half-log increments. If the clinical Cmax for an agent had not been determined, the highest concentration tested was 10 microM.
Cell Culture. All cells were maintained in an incubator at 37 degrees C and 5% CO2 with 95% humidity. The PDC lines were cultured according to standard operating procedures established by the NCI PDMR. All PDCs were thawed and cultured in Matrigel-coated flasks prepared with a working solution of 1X Ham's F-12 nutrient mix, without supplementation (Invitrogen, Waltham, MA, cat. 11765054), 100 U/mL penicillin-streptomycin (Invitrogen, cat. 15140122), and 2.5% Matrigel (Corning Inc., Corning, NY, cat. 354248) for the first three passages. The 362531-283-R-J2-PDC and 782815-120-R-J1-PDC lines were cultured in 6C/Colon 1B media, which includes advanced DMEM/F-12 (Thermo Fisher Scientific, cat. 12634028), 10 mM HEPES (Thermo Fisher Scientific, cat. 15630080), 1X GlutaMAX supplement (Thermo Fisher Scientific, cat. 35050061), 0.1 mg/mL primocin (InvivoGen, San Diego, CA, cat. ant-pm-2), 10% defined fetal bovine serum, heat inactivated (HyClone Laboratories Inc., Logan, UT, cat. SH30070.03HI), 50% L-WRN conditioned media (ATCC, cat. CRL-3276), 1.25 mM N-Acetyl-L-cysteine (Sigma-Aldrich, cat. A9165), 10 mM nicotinamide (Sigma-Aldrich, cat. N0636), 1X B-27 supplement (Thermo Fisher Scientific, cat. 17504044), 1X N-2 supplement (Thermo Fisher Scientific, cat. 17502048), 50 ng/mL human EGF (Thermo Fisher Scientific, cat. PHG0311), and 10 microM Y-27632 dihydrochloride (Tocris Bioscience, cat. 1254). The K12877-001-R-J1-PDC line was cultured in 6I media, which includes all 6C/Colon 1B media plus 10 ng/mL human FGF-10 (PeproTech, cat. 100-26), 1 ng/mL human FGF-2 (PeproTech, cat. 100-18B), 1 µM prostaglandin E2 (Tocris Bioscience, cat. 2296), […] hydrocortisone (Sigma-Aldrich, cat. H4001), and […] bovine insulin (Sigma-Aldrich, cat. I6634). The K86415-001-R-J1-PDC line was cultured in 6D media, which includes all 6C/Colon 1B media components minus the L-WRN conditioned media. The 485176-168-R4-J1-PDC was cultured in PANC media, which includes all 6C/Colon 1B media plus 100 ng/mL human FGF-10 (PeproTech, cat. 100-26), 500 nM SB-431542 (Selleckchem, cat. S1067), and 10 nM gastrin (Tocris Bioscience, cat. 3006). […]
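Also: spheroids exposed to agents for seven days before readout.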

Structure (SMILES): CC(=O)OC12COC1CC(O)C1(C)C(=O)C(O)C3=C(C)C(OC(=O)C(O)C(NC(=O)OC(C)(C)C)c4ccccc4)CC(O)(C(OC(=O)c4ccccc4)C21)C3(C)C (configuration not stated) + CCn1c(-c2cc(N3CCN(C)CC3)cnc2C(C)OC)c2c3cc(ccc31)-c1csc(n1)CC(NC(=O)C1CC1C)C(=O)N1CCCC(N1)C(=O)OCC(C)(C)C2
- IC50 (second compound 0.000949 µM): < 0.0316 µM
- IC50 (second compound 0.003 µM): < 0.0316 µM
- IC50 (second compound 0.00949 µM): < 0.0316 µM
- IC50 (second compound 0.03 µM): < 0.0316 µM
- IC50 (second compound 0.0949 µM): < 0.0316 µM
- IC50 (second compound 0.3 µM): < 0.0316 µM
- viability, T/C (second compound 0.000949 µM, first compound 0.0316 µM): 26.9%
- viability, T/C (second compound 0.000949 µM, first compound 0.1 µM): 21.5%
- viability, T/C (second compound 0.000949 µM, first compound 0.316 µM): 17.2%
- viability, T/C (second compound 0.000949 µM, first compound 1 µM): 22.7%
- viability, T/C (second compound 0.000949 µM, first compound 3.16 µM): 25.3%
- viability, T/C (second compound 0.000949 µM, first compound 10 µM): 19%
- viability, T/C (second compound 0.003 µM, first compound 0.0316 µM): 19.2%
- viability, T/C (second compound 0.003 µM, first compound 0.1 µM): 15.6%
- viability, T/C (second compound 0.003 µM, first compound 0.316 µM): 15.1%
- viability, T/C (second compound 0.003 µM, first compound 1 µM): 16.7%
- viability, T/C (second compound 0.003 µM, first compound 3.16 µM): 15%
- viability, T/C (second compound 0.003 µM, first compound 10 µM): 12.8%
- viability, T/C (second compound 0.00949 µM, first compound 0.0316 µM): 9.53%
- viability, T/C (second compound 0.00949 µM, first compound 0.1 µM): 7.3%
- viability, T/C (second compound 0.00949 µM, first compound 0.316 µM): 7.91%
- viability, T/C (second compound 0.00949 µM, first compound 1 µM): 7.79%
- viability, T/C (second compound 0.00949 µM, first compound 3.16 µM): 5.97%
- viability, T/C (second compound 0.00949 µM, first compound 10 µM): 6.51%
- viability, T/C (second compound 0.03 µM, first compound 0.0316 µM): 5.56%
- viability, T/C (second compound 0.03 µM, first compound 0.1 µM): 5.63%
- viability, T/C (second compound 0.03 µM, first compound 0.316 µM): 4.4%
- viability, T/C (second compound 0.03 µM, first compound 1 µM): 3.98%
- viability, T/C (second compound 0.03 µM, first compound 3.16 µM): 2.48%
- viability, T/C (second compound 0.03 µM, first compound 10 µM): 2.81%
- viability, T/C (second compound 0.0949 µM, first compound 0.0316 µM): 3.04%
- viability, T/C (second compound 0.0949 µM, first compound 0.1 µM): 2.69%
- viability, T/C (second compound 0.0949 µM, first compound 0.316 µM): 2.48%
- viability, T/C (second compound 0.0949 µM, first compound 1 µM): 1.97%
- viability, T/C (second compound 0.0949 µM, first compound 3.16 µM): 2.21%
- viability, T/C (second compound 0.0949 µM, first compound 10 µM): 2.4%
- viability, T/C (second compound 0.3 µM, first compound 0.0316 µM): 2.05%
- viability, T/C (second compound 0.3 µM, first compound 0.1 µM): 2.39%
- viability, T/C (second compound 0.3 µM, first compound 0.316 µM): 1.97%
- viability, T/C (second compound 0.3 µM, first compound 1 µM): 2.03%
- viability, T/C (second compound 0.3 µM, first compound 3.16 µM): 2.06%
- viability, T/C (second compound 0.3 µM, first compound 10 µM): 1.73%
